Experimental data from article PMC6706627, “Mapping Interactions of Microbial Metabolites with Human G-Protein-Coupled Receptors” (Cell Host & Microbe, 2019).
One block for each compound: values may come before it. Where a SMILES comes first, the peptide text is derived from it. Bridges are numbered along the chain shown (N, C = ends). [ ]: non-standard residue; d: D form.

Experiments:
PTGIR = PTGIR (Homo sapiens, UniProt P43119); assay: cell-based; set-up: species or system recombinant GPCR reporter cell lines; PathHunter beta-arrestin recruitment (beta-galactosidase complementation), chemiluminescence, agonist mode, Eurofins DiscoverX
GPR109B [1] = molecular target: T1, GPR109B (Homo sapiens, UniProt P49019); assay: PathHunter beta-arrestin recruitment assay, dose-response of the known agonist; assay type: cell-based
T1 construct: gene HCAR3
Source text: PathHunter beta-arrestin recruitment assay, dose-response of the known agonist on GPR109B | This previously unknown GPR109B agonist elicited a similar GPCR response to 3-hydroxyoctanoic acid

OXER1 = OXER1 (Homo sapiens, UniProt Q8TDS5); assay: cell-based; set-up: species or system recombinant GPCR reporter cell lines; PathHunter beta-arrestin recruitment (beta-galactosidase complementation), chemiluminescence, agonist mode, Eurofins DiscoverX
EBI2 = molecular target: T2, EBI2 (Homo sapiens, UniProt P32249); assay: cell-based; set-up: species or system recombinant GPCR reporter cell lines; PathHunter beta-arrestin recruitment (beta-galactosidase complementation), chemiluminescence, agonist mode, Eurofins DiscoverX; settings: agonist; read-out: RC50 (the source's name)
T2 construct: gene GPR183

[2] = molecular target: T3, brain angiogenesis factor 1 (BAI1) receptor (Homo sapiens, UniProt O14514); assay: PathHunter beta-arrestin recruitment assay in a recombinant reporter cell line, dose-response; assay type: cell-based
T3 construct: gene ADGRB1

MRGPRX2 = molecular target: T4, MRGPRX2 (Homo sapiens, UniProt Q96LB1); assay: cell-based; set-up: species or system recombinant GPCR reporter cell lines; PathHunter beta-arrestin recruitment (beta-galactosidase complementation), chemiluminescence, agonist mode, Eurofins DiscoverX
T4 sequence (Q96LB1 1-330): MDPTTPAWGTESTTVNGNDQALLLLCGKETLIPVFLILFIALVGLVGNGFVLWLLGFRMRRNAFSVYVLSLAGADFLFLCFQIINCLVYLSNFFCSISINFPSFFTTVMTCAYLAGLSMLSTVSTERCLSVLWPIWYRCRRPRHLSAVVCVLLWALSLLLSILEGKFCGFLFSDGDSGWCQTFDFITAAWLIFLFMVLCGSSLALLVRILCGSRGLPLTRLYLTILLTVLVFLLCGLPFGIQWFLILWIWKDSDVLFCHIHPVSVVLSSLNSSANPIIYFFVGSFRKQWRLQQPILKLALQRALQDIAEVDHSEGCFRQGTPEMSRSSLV

FFAR1 = FFAR1 (Homo sapiens, UniProt O14842); assay: cell-based; set-up: species or system recombinant GPCR reporter cell lines; PathHunter beta-arrestin recruitment (beta-galactosidase complementation), chemiluminescence, agonist mode, Eurofins DiscoverX
KISS1R = KISS1R (Homo sapiens, UniProt Q969F8); assay: cell-based; set-up: species or system recombinant GPCR reporter cell lines; PathHunter beta-arrestin recruitment (beta-galactosidase complementation), chemiluminescence, agonist mode, Eurofins DiscoverX
GPR119 = molecular target: T5, GPR119 (Homo sapiens, UniProt Q8TDV5); assay: cell-based; set-up: species or system recombinant GPCR reporter cell lines; PathHunter beta-arrestin recruitment (beta-galactosidase complementation), chemiluminescence, agonist mode, Eurofins DiscoverX
T5 sequence (Q8TDV5 1-335): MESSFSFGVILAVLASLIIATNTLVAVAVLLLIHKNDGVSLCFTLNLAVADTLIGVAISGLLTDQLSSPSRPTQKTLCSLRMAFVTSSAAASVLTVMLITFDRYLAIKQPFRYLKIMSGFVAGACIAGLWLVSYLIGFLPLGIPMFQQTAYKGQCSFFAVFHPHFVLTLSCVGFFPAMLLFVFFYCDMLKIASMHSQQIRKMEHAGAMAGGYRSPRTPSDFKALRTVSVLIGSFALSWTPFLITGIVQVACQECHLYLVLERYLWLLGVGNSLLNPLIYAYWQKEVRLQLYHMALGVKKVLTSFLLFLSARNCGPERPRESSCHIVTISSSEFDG

CRTH2 = molecular target: T6, CRTH2 (Homo sapiens, UniProt Q9Y5Y4); assay: cell-based; set-up: species or system recombinant GPCR reporter cell lines; PathHunter beta-arrestin recruitment (beta-galactosidase complementation), chemiluminescence, agonist mode, Eurofins DiscoverX
T6 construct: gene PTGDR2
T6 sequence (Q9Y5Y4 1-395): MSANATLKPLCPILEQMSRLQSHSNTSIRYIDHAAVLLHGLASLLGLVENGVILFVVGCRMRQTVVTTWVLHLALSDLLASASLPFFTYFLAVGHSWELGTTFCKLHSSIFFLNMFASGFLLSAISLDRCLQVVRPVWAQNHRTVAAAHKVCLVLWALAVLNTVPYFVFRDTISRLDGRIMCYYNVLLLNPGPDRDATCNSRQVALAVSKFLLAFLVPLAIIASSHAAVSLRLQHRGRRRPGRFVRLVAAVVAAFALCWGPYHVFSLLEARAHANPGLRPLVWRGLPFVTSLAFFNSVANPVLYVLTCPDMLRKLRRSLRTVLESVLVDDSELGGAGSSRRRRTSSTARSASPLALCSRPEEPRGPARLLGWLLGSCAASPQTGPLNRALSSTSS

PTHR2 = molecular target: T7, PTHR2 (Homo sapiens, UniProt P49190); assay: cell-based; set-up: species or system recombinant GPCR reporter cell lines; PathHunter beta-arrestin recruitment (beta-galactosidase complementation), chemiluminescence, agonist mode, Eurofins DiscoverX
T7 construct: gene PTH2R

[3] = molecular target: T8, urotensin 2 receptor (UTR2) (Homo sapiens, UniProt Q9UKP6); assay: PathHunter beta-arrestin recruitment assay in a recombinant reporter cell line, dose-response; assay type: cell-based
T8 construct: gene UTS2R
T8 sequence (Q9UKP6 1-389): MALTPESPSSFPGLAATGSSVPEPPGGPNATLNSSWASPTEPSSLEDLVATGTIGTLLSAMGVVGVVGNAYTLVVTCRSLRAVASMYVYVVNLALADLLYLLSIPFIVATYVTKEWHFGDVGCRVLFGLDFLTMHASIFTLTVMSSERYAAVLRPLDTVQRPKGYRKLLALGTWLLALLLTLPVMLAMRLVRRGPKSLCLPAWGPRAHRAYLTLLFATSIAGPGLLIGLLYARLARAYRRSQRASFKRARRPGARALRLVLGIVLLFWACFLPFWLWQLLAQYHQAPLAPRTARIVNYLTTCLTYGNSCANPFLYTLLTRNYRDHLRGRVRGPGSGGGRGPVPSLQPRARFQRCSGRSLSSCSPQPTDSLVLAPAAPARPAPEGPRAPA

[4] = molecular target: T9, neuromedin receptor 1 (NMU1R) (Homo sapiens, UniProt Q9HB89); assay: as above; assay type: cell-based
T9 construct: gene NMUR1
T9 sequence (Q9HB89 1-426): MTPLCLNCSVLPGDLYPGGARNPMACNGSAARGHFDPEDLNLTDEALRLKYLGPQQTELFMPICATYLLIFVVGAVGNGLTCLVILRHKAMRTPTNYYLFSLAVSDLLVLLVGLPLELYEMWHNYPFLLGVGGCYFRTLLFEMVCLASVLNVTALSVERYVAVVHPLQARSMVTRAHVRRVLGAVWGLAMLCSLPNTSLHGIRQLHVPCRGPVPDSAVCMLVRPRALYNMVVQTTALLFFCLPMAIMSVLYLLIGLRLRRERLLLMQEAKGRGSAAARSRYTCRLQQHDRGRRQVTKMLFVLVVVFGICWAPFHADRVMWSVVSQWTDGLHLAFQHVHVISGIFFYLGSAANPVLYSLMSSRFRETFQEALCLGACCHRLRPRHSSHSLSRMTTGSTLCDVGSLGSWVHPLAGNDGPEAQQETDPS

HRH4 = HRH4 (Homo sapiens, UniProt Q9H3N8); assay: PathHunter beta-arrestin recruitment assay in a recombinant reporter cell line, commercial standard, dose-response; assay type: cell-based
GPR109B [5] = molecular target: T1, GPR109B; assay: PathHunter beta-arrestin recruitment assay in a recombinant reporter cell line, dose-response; assay type: cell-based

T1 sequence (P49019 whole entry): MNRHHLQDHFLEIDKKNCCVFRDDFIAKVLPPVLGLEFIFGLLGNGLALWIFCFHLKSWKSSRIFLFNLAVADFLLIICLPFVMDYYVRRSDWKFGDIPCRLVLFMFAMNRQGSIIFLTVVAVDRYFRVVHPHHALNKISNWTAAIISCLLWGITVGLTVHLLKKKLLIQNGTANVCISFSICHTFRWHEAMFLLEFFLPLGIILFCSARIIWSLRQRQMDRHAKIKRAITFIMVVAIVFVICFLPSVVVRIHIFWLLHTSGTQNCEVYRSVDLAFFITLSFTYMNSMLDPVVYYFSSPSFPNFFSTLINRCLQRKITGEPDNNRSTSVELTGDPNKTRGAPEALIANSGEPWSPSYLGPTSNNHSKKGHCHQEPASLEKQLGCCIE
Sequence of KISS1R (Q969F8 whole entry): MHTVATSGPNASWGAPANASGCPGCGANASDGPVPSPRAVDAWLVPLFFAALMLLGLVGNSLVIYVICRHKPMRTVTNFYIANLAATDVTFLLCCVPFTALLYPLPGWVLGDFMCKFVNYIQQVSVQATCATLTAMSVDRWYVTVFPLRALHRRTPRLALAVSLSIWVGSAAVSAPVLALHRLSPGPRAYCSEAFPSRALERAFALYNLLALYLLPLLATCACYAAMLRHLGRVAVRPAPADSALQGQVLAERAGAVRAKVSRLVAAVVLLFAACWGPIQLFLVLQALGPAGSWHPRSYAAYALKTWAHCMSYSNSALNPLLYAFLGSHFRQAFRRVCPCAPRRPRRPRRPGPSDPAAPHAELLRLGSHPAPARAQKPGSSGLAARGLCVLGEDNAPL
T7 sequence (P49190 whole entry): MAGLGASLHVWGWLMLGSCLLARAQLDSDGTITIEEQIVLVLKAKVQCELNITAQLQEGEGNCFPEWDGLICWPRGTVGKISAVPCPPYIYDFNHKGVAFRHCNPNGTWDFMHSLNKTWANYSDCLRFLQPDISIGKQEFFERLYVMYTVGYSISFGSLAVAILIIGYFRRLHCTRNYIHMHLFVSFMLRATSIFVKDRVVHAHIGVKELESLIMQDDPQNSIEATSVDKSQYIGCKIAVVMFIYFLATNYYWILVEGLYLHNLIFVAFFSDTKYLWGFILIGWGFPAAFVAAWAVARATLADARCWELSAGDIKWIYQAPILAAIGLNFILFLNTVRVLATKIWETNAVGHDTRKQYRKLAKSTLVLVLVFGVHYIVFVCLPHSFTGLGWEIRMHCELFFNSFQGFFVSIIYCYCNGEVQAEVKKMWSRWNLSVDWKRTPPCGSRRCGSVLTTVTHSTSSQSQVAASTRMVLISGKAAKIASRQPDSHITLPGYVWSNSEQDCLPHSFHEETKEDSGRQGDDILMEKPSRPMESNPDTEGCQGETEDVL
T2 sequence (P32249 whole entry): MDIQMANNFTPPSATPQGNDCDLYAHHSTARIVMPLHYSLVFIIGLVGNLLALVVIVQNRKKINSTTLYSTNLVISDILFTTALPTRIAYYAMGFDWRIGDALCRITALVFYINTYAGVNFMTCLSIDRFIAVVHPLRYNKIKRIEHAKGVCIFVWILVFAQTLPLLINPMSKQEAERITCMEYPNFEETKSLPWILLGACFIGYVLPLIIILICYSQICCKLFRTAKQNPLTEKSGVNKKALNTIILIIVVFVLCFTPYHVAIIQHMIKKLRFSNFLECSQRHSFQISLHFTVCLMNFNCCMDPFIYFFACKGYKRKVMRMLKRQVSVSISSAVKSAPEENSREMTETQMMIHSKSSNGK
T3 sequence (O14514 31-1584): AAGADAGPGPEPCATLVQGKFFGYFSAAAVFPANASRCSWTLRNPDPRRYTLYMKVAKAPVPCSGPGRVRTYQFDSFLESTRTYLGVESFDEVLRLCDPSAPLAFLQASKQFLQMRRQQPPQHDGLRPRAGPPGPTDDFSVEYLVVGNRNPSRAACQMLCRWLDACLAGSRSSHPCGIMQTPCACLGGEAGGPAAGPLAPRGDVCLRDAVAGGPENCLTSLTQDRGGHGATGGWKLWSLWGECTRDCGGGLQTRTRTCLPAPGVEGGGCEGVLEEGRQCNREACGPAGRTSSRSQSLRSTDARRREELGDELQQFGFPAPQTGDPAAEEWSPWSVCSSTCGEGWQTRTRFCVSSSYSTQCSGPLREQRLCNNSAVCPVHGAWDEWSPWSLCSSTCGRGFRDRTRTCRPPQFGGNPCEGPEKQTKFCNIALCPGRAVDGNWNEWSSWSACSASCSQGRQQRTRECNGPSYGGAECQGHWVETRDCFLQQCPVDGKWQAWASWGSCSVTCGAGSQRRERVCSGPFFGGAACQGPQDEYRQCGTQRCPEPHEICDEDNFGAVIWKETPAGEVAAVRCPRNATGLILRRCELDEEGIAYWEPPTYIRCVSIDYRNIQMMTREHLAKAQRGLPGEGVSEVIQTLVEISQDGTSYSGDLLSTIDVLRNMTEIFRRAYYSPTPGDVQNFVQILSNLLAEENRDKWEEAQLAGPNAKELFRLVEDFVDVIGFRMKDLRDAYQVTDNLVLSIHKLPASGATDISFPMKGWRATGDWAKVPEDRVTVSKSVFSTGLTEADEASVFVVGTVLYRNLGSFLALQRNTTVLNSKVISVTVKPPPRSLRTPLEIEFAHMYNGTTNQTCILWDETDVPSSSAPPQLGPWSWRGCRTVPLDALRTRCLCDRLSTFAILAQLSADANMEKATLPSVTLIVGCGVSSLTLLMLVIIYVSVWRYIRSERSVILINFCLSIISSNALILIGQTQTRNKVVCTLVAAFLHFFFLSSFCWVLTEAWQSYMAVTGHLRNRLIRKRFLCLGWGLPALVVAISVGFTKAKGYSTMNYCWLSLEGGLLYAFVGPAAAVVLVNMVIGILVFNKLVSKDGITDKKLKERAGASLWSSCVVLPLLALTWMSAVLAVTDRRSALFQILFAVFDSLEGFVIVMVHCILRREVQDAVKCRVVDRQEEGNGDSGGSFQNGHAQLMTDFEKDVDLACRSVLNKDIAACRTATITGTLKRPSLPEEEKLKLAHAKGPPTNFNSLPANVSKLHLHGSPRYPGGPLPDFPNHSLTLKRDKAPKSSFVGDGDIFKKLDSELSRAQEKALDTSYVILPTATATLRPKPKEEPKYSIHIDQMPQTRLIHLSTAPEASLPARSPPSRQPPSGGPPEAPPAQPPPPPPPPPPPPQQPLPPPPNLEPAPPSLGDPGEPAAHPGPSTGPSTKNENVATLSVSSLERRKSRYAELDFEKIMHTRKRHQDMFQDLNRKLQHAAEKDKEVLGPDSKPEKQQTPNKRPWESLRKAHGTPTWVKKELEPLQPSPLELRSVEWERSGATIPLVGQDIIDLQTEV
Sequence of PTGIR (P43119 whole entry): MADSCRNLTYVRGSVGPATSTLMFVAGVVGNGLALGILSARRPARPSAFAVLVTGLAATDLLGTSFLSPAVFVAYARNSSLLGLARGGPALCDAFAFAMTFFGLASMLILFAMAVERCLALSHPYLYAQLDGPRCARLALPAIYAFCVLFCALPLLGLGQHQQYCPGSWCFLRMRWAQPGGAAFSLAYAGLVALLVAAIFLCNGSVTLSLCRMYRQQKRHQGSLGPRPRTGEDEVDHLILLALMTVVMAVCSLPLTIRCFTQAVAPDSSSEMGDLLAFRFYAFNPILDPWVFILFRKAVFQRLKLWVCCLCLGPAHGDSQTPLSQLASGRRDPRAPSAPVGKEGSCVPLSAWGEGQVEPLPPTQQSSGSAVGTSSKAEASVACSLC
Sequence of FFAR1 (O14842 whole entry): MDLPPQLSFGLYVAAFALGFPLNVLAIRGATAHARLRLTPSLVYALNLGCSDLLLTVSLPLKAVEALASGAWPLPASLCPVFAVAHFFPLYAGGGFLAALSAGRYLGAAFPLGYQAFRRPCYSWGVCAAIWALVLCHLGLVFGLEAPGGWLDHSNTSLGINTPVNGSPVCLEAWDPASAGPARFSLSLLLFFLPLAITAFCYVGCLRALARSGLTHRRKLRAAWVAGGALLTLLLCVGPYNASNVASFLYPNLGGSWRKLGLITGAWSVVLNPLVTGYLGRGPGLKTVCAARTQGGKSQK
Sequence of OXER1 (Q8TDS5 whole entry): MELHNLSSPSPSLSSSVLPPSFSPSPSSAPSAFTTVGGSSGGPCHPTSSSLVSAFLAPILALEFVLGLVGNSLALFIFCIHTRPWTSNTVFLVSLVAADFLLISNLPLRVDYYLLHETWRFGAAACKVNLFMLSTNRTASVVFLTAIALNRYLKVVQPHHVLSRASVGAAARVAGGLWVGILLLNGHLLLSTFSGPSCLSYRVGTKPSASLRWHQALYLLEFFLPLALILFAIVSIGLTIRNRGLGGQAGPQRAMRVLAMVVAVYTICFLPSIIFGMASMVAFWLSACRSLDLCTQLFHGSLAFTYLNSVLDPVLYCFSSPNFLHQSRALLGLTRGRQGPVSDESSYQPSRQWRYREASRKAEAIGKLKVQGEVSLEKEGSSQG

- EC50 (PTGIR): 311 nM
SMILES: CC#CCC(C)[C@H](O)/C=C/[C@@H]1[C@H]2c3cccc(CCCC(=O)O)c3O[C@H]2C[C@H]1O (mixture of isomers) [Beraprost]

SMILES: CCCCCC(O)CC(=O)O (stereo not drawn) [3-hydroxyoctanoic acid]
- EC50 (GPR109B [1]): 304 µM

- EC50 (OXER1): 693 nM
SMILES: CCCCC/C=C\C/C=C\C/C=C\C=C\C(=O)CCCC(=O)O [5-OxoETE]

SMILES: C[C@H](CCCC(C)(C)O)[C@H]1CC[C@H]2[C@@H]3[C@H](O)C=C4C[C@@H](O)CC[C@]4(C)[C@H]3CC[C@]12C [7a,25-Dihydroxycholesterol]
- EC50 (EBI2): 191 nM

SMILES: CCCCCCC1CC1CCCCCCCC(=O)O (stereo not drawn) [9,10-methylenehexadecanoic acid, cis-9,10-methylenehexadecanoic acid]
- EC50 [2]: 11 µM

- EC50 (MRGPRX2): 635 nM
SMILES: C[C@@H](O)[C@@H]1NC(=O)[C@@H](CCCCN)NC(=O)[C@H](Cc2c[nH]c3ccccc23)NC(=O)[C@H](Cc2ccccc2)NC(=O)[C@H](Cc2ccccc2)NC(=O)[C@H](CC(N)=O)NC(=O)[C@H](CCCCN)NC(=O)[C@@H](NC(=O)[C@@H]2CCCN2)CSSC[C@@H](C(=O)N[C@@H](CCCCN)C(=O)O)NC(=O)[C@H](CO)NC(=O)[C@H](CO)NC(=O)[C@@H](Cc2ccccc2)NC1=O [Cortistatin 14] (H-PCKNFFW[dK]T[dF]SSCK-OH; disulfide 2-13)

- EC50 (FFAR1): 288 nM
SMILES: O=C(O)CCc1ccc(NCc2cccc(Oc3ccccc3)c2)cc1 [GW9508]

- EC50 (KISS1R): 11.7 nM
SMILES: CC(C)C[C@H](NC(=O)CNC(=O)[C@H](Cc1ccccc1)NC(=O)[C@H](CO)NC(=O)[C@H](CC(N)=O)NC(=O)[C@H](Cc1c[nH]c2ccccc12)NC(=O)[C@H](CC(N)=O)NC(=O)[C@@H](N)Cc1ccc(O)cc1)C(=O)N[C@@H](CCCNC(=N)N)C(=O)N[C@@H](Cc1ccccc1)C(N)=O [Kisspeptin-10]

- EC50 (GPR119): 1740 nM
SMILES: CCCCCCCC/C=C\CCCCCCCC(=O)NCCO [Oleoyl Ethanolamide]

- EC50 (CRTH2): 19.3 nM
SMILES: CCCCC[C@H](O)/C=C/[C@H]1C(=O)C[C@H](O)[C@@H]1C/C=C\CCCC(=O)O [PGD2]

- EC50 (PTHR2): 0.849 nM
SMILES: CCCCC#CCCCCCCCC(=O)OC [TIP-39]

- EC50 [3]: 191 µM
- EC50 [4]: 125 µM
SMILES: CCC(C)CCCCCCCCCCC(=O)O (stereo not drawn) [aiC15:0, 12-methyltetradecanoic acid]

- EC50 (HRH4): 1100 nM
SMILES: NCCCCCN [cadaverine]

- EC50 (GPR109B [5]): 208 µM
SMILES: O=C(O)CCc1ccccc1 [phenylpropanoic acid]
